This is an account of results in US7081460B2, “Quinazoline and quinazoline-like compounds for the treatment of integrin-mediated disorders” (Ortho-McNeil Pharmaceutical, Inc., priority 2001, dated 2006).

The target of one assay is T1, Human αvβ3 (Homo sapiens, UniProt P05106+P06756).
T1 construct: purchased Chemicon International Inc., Temecula, Calif
In words: In vitro solid phase purified αvβ3 binding assay (vitronectin/αvβ3). The note with it: isolated human αvβ3, 5 nM vitronectin; read-out: αvβ3 Binding IC50. The gist of the method:
(§1)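 αvβ3 (1 μg/ml) immobilised in Tris buffer with Ca2+/Mg2+/Mn2+, compounds added 5 min before 5 nM vitronectin, 3 h at 37 °C; bound vitronectin detected by anti-vitronectin antibody/peroxidase ELISA at 490 nm. GPIIb/IIIa coated overnight at 4 °C, biotinylated fibrinogen with compounds 2–4 h RT in modified Tyrodes buffer, avidin-HRP/o-phenylenediamine read at 490 nm.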

For another assay, the target named is GPIIb/IIIa (Homo sapiens, UniProt P05106+P08514). In words: In vitro solid phase purified glycoprotein IIb/IIIa binding assay (biotinylated fibrinogen). The note with it: RGD-affinity purified GPIIb/IIIa, biotinylated fibrinogen; read-out: GPIIb/IIIa Binding IC50. The gist of the method:
as §1

T1 sequence (P06756 31-889 limits assumed): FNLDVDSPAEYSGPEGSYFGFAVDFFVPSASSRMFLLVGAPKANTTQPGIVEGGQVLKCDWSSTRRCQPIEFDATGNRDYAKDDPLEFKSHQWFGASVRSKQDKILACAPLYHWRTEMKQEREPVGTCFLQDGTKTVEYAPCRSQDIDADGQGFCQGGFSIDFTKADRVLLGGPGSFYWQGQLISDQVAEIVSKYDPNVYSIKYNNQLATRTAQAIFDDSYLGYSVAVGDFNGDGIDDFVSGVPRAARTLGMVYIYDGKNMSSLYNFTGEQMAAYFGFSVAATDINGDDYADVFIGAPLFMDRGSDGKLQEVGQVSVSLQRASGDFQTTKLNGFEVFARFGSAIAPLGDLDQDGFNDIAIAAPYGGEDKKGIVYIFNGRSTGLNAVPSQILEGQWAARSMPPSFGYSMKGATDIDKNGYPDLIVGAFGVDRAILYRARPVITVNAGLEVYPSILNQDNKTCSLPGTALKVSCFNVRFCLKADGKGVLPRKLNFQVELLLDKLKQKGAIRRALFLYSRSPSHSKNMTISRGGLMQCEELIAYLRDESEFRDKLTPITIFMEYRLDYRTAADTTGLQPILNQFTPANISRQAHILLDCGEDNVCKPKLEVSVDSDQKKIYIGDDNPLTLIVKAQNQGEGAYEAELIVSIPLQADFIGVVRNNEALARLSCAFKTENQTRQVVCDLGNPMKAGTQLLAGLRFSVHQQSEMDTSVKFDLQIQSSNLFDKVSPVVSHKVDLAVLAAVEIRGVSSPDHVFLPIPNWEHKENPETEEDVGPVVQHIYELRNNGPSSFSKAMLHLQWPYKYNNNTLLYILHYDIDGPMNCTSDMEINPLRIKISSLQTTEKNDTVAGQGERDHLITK
T1 sequence (P06756 891-1048 partner limits assumed): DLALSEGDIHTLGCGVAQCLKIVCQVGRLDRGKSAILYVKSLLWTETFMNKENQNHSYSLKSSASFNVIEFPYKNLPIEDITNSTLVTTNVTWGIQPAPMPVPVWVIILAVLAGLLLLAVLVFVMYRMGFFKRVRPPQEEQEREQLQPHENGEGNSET
T1 sequence (P05106 27-788): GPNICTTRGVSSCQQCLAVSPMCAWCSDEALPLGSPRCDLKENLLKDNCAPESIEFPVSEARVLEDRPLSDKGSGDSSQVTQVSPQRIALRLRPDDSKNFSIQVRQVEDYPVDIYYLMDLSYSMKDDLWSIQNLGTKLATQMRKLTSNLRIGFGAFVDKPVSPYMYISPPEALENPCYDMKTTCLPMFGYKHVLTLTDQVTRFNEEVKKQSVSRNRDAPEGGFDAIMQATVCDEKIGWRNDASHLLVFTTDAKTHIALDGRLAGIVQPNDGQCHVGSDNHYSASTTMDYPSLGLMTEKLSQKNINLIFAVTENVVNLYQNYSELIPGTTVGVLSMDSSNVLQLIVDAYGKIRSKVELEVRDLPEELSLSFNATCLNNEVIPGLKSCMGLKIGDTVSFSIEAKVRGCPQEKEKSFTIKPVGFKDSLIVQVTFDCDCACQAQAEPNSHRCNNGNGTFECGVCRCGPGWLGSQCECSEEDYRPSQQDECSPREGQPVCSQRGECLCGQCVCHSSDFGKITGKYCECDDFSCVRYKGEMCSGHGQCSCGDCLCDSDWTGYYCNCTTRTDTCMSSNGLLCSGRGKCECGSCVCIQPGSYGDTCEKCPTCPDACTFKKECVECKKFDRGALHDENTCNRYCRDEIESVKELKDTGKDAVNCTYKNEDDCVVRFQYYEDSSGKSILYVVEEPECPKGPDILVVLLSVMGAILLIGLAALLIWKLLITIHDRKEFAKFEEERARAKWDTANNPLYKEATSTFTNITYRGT
Chain of GPIIb/IIIa (P08514 32-887 limits assumed): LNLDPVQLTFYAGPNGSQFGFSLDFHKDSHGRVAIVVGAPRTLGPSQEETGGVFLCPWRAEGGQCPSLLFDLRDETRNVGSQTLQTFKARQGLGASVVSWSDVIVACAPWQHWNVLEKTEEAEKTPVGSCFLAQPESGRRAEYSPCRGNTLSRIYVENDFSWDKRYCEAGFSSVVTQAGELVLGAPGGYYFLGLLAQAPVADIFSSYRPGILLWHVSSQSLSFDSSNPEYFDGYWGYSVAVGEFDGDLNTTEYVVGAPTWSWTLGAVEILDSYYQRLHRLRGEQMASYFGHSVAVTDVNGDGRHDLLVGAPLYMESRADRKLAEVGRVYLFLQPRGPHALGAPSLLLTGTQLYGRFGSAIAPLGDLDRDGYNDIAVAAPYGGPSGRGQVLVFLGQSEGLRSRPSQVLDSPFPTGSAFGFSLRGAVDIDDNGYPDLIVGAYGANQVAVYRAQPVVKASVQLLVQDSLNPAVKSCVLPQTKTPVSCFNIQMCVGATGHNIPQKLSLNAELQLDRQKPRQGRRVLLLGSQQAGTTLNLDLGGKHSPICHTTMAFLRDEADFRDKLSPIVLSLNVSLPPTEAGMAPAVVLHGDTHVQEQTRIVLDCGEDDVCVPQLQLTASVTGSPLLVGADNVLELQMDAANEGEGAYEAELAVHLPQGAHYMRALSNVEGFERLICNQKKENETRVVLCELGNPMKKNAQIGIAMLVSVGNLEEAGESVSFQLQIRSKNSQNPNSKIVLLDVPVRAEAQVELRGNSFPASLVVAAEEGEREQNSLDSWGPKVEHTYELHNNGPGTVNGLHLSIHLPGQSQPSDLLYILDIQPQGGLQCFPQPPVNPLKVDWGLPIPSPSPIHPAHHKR
Chain of GPIIb/IIIa (P08514 891-1039 partner limits assumed): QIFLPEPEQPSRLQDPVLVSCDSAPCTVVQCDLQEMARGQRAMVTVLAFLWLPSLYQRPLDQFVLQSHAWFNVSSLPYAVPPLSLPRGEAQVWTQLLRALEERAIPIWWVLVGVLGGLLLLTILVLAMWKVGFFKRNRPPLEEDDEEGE
Chain of GPIIb/IIIa (P05106 27-788): as the sequence (P05106 27-788) above

As for `Cc1nn(C)c(Cl)c1S(=O)(=O)N[C@@H](Cc1nc2ccc(/C=C/CNc3ccccn3)cc2c(=O)[nH]1)C(=O)O` [Compound 36, α-[[(5-chloro-1,3-dimethyl-1H-pyrazol-4-yl)sulfonyl]amino]-(αS)-3,4-dihydro-4-oxo-6-[(1E)-3-(2-pyridinylamino)-1-propenyl]-2-quinazolinepropanoic acid], the IC50 at Human αvβ3 was found to be 25 nM; at GPIIb/IIIa, 2700 nM.

On to `Cc1noc(C)c1S(=O)(=O)N[C@@H](Cc1nc2ccc(/C=C/CNc3ccccn3)cc2c(=O)[nH]1)C(=O)O` [Compound 37, α-[[(3,5-dimethyl-4-isoxazolyl)sulfonyl]amino]-(αS)-3,4-dihydro-4-oxo-6-[(1E)-3-(2-pyridinylamino)-1-propenyl]-2-quinazolinepropanoic acid], for which the IC50 on Human αvβ3 was 54 nM; on GPIIb/IIIa, 700 nM.

On to `Cc1cccnc1NC/C=C/c1ccc2nc(C[C@H](NS(=O)(=O)c3c(C)c(C)c(C)c(C)c3C)C(=O)O)[nH]c(=O)c2c1` [Compound 38, (αS)-3,4-dihydro-6-[(1E)-3-[(3-methyl-2-pyridinyl)amino]-1-propenyl]-4-oxo-α-[[(2,3,4,5,6-pentamethylphenyl)sulfonyl]amino]-2-quinazolinepropanoic acid], for which the IC50 on Human αvβ3 came to 1400 nM; at GPIIb/IIIa, 220 nM.

Regarding `Cc1c(C)c(C)c(S(=O)(=O)N[C@@H](Cc2nc3ccc(/C=C/CNc4ccc(Cl)cn4)cc3c(=O)[nH]2)C(=O)O)c(C)c1C` [Compound 39, 6-[(1E)-3-[(5-chloro-2-pyridinyl)amino]-1-propenyl]-(αS)-3,4-dihydro-4-oxo-α-[[(2,3,4,5,6-pentamethylphenyl)sulfonyl]amino]-2-quinazolinepropanoic acid], the IC50 on Human αvβ3 and on GPIIb/IIIa was 1800 nM throughout.

Consider `COc1ccc(S(=O)(=O)N[C@@H](Cc2nc3ccc(/C=C/CNc4ccc(Cl)cn4)cc3c(=O)[nH]2)C(=O)O)cc1` [Compound 40, 6-[(1E)-3-[(5-chloro-2-pyridinyl)amino]-1-propenyl]-(αS)-3,4-dihydro-α-[[(4-methoxyphenyl)sulfonyl]amino]-4-oxo-2-quinazolinepropanoic acid], for which the results for the IC50 at Human αvβ3 and on GPIIb/IIIa were 740 nM and 1900 nM, respectively.

Regarding `COC(=O)[C@H](Cc1nc2ccc(/C=C/CNC3=NCCN3)cc2c(=O)[nH]1)NS(=O)(=O)c1c(C)c(C)c(C)c(C)c1C` [Compound 41, 6-[(1E)-3-[(4,5-dihydro-1H-imidazol-2-yl)amino]-1-propenyl]-(αS)-3,4-dihydro-4-oxo-α-[[(2,3,4,5,6-pentamethylphenyl)sulfonyl]amino]methyl ester 2-quinazolinepropanoic acid], the IC50 was 19 nM on Human αvβ3 and 240 nM on GPIIb/IIIa.

On to `Cc1c(C)c(C)c(S(=O)(=O)N[C@@H](Cc2nc3ccc(/C=C/CCNC4=NCCN4)cc3c(=O)[nH]2)C(=O)O)c(C)c1C` [Compound 42, 6-[(1E)-4-[(4,5-dihydro-1H-imidazol-2-yl)amino]-1-butenyl]-(αS)-3,4-dihydro-4-oxo-α-[[(2,3,4,5,6-pentamethylphenyl)sulfonyl]amino]-2-quinazolinepropanoic acid], for which the IC50 worked out at 5.4 nM on Human αvβ3 and 60 nM on GPIIb/IIIa.

As for `Cc1ccc(NC/C=C/c2ccc3nc(C[C@H](NS(=O)(=O)c4c(C)c(C)c(C)c(C)c4C)C(=O)O)[nH]c(=O)c3c2)nc1` [Compound 43, (αS)-3,4-dihydro-6-[(1E)-3-[(5-methyl-2-pyridinyl)amino]-1-propenyl]-4-oxo-α-[[(2,3,4,5,6-pentamethylphenyl)sulfonyl]amino]-2-quinazolinepropanoic acid], the IC50 on Human αvβ3 was 22 nM; on GPIIb/IIIa, 880 nM.

As for `COc1ccc(S(=O)(=O)N[C@@H](Cc2nc3ccc(/C=C/CNc4ccc(C)cn4)cc3c(=O)[nH]2)C(=O)O)cc1OC` [Compound 44, α-[[(3,4-dimethoxyphenyl)sulfonyl]amino]-(αS)-3,4-dihydro-6-[(1E)-3-[(5-methyl-2-pyridinyl)amino]-1-propenyl]-4-oxo-2-quinazolinepropanoic acid], the values for the IC50 on Human αvβ3 and on GPIIb/IIIa were 24 nM and 790 nM, respectively.

Consider `Cc1ccnc(NC/C=C/c2ccc3nc(C[C@H](NS(=O)(=O)c4c(C)c(C)c(C)c(C)c4C)C(=O)O)[nH]c(=O)c3c2)c1` [Compound 45, (αS)-3,4-dihydro-6-[(1E)-3-[(4-methyl-2-pyridinyl)amino]-1-propenyl]-4-oxo-α-[[(2,3,4,5,6-pentamethylphenyl)sulfonyl]amino]-2-quinazolinepropanoic acid], for which the IC50 amounted to 15 nM at Human αvβ3 and 1800 nM at GPIIb/IIIa.

As for `COc1ccc(S(=O)(=O)N[C@@H](Cc2nc3ccc(/C=C/CNc4cc(C)ccn4)cc3c(=O)[nH]2)C(=O)O)cc1OC` [Compound 46, α-[[(3,4-dimethoxyphenyl)sulfonyl]amino]-(αS)-3,4-dihydro-6-[(1E)-3-[(4-methyl-2-pyridinyl)amino]-1-propenyl]-4-oxo-2-quinazolinepropanoic acid], the IC50 on Human αvβ3 turned out to be 5.8 nM; at GPIIb/IIIa it was 740 nM.

Take `Cc1c(C)c(C)c(S(=O)(=O)N[C@@H](Cc2nc3ccc(/C=C/CNC(=N)c4cccnc4)cc3c(=O)[nH]2)C(=O)O)c(C)c1C` [Compound 47, (αS)-3,4-dihydro-6-[(1E)-3-[(imino-3-pyridinylmethyl)amino]-1-propenyl]-4-oxo-α-[[(2,3,4,5,6-pentamethylphenyl)sulfonyl]amino]-2-quinazolinepropanoic acid]: the IC50 at Human αvβ3 stood at 132 nM; at GPIIb/IIIa it was 96 nM.

On to `COc1ccc(S(=O)(=O)N[C@@H](Cc2nc3ccc(/C=C/CNC4=NCCN4)cc3c(=O)[nH]2)C(=O)O)cc1OC` [Compound 48, 6-[(1E)-3-[(4,5-dihydro-1H-imidazol-2-yl)amino]-1-propenyl]-α-[[(3,4-dimethoxyphenyl)sulfonyl]amino]-(αS)-3,4-dihydro-4-oxo-2-quinazolinepropanoic acid], for which the IC50 on Human αvβ3 turned out to be 11 nM; at GPIIb/IIIa it was 64 nM.

As to `Cc1c(C)c(C)c(S(=O)(=O)N[C@@H](Cc2nc3ccc(/C=C/CNC(=O)NCc4ccccc4)cc3c(=O)[nH]2)C(=O)O)c(C)c1C` [Compound 49, (αS)-3,4-dihydro-4-oxo-α-[[(2,3,4,5,6-pentamethylphenyl)sulfonyl]amino]-6-[(1E)-3-[[(benzylamino)carbonyl]amino]-1-propenyl]-2-quinazolinepropanoic acid], the IC50 at Human αvβ3 amounted to 8.8 nM; on GPIIb/IIIa it was 820 nM.

With `COc1ccc(S(=O)(=O)N[C@@H](Cc2nc3ccc(/C=C/CNC4=NCCN4)cc3c(=O)[nH]2)C(=O)O)cc1` [Compound 50, 6-[(1E)-3-[(4,5-dihydro-1H-imidazol-2-yl)amino]-1-propenyl]-(αS)-3,4-dihydro-α-[[(4-methoxyphenyl)sulfonyl]amino]-4-oxo-2-quinazolinepropanoic acid], the IC50 was 6.8 nM at Human αvβ3 and 51 nM at GPIIb/IIIa.

Turning to `CCCCNC(=O)NC/C=C/c1ccc2nc(C[C@H](NS(=O)(=O)c3c(C)c(C)c(C)c(C)c3C)C(=O)O)[nH]c(=O)c2c1` [Compound 51, 6-[(1E)-3-[[(butylamino)carbonyl]amino]-1-propenyl]-(αS)-3,4-dihydro-4-oxo-α-[[(2,3,4,5,6-pentamethylphenyl)sulfonyl]amino]-2-quinazolinepropanoic acid], the IC50 at Human αvβ3 worked out at 17 nM; on GPIIb/IIIa it was 4800 nM.

With `Cc1c(C)c(C)c(S(=O)(=O)N[C@@H](Cc2nc3ccc(/C=C/CNC4=NCCCC4)cc3c(=O)[nH]2)C(=O)O)c(C)c1C` [Compound 52, (αS)-3,4-dihydro-4-oxo-α-(α^2S)-[[(2,3,4,5,6-pentamethylphenyl)sulfonyl]amino]-6-[(1E)-3-[(3,4,5,6-tetrahydro-2-pyridinyl)amino]-1-propenyl]-2-quinazolinepropanoic acid], the IC50 amounted to 24 nM at Human αvβ3 and 110 nM on GPIIb/IIIa.

As for `Cc1c(C)c(C)c(S(=O)(=O)N[C@@H](Cc2nc3ccc(/C=C/CNC(N)=O)cc3c(=O)[nH]2)C(=O)O)c(C)c1C` [Compound 53, 6-[(1E)-3-[(aminocarbonyl)amino]-1-propenyl]-(αS)-3,4-dihydro-4-oxo-α-[[(2,3,4,5,6-pentamethylphenyl)sulfonyl]amino]-2-quinazolinepropanoic acid], the IC50 on Human αvβ3 came to 31 nM; on GPIIb/IIIa it was 200 nM.

On to `COc1ccc(S(=O)(=O)N[C@@H](Cc2nc3ccc(/C=C/CNC(=O)NCc4ccccc4)cc3c(=O)[nH]2)C(=O)O)cc1OC` [Compound 54, α-[[(3,4-dimethoxyphenyl)sulfonyl]amino]-(αS)-3,4-dihydro-4-oxo-6-[(1E)-3-[[[(phenylmethyl)amino]carbonyl]amino]-1-propenyl]-2-quinazolinepropanoic acid], for which the IC50 on Human αvβ3 was 38 nM; on GPIIb/IIIa it was 5000 nM.

Take `COc1ccc(S(=O)(=O)N[C@@H](Cc2nc3ccc(/C=C/CNC4=NCCC4)cc3c(=O)[nH]2)C(=O)O)cc1OC` [Compound 55, 6-[(1E)-3-[(3,4-dihydro-2H-pyrrol-5-yl)amino]-1-propenyl]-α-[[(3,4-dimethoxyphenyl)sulfonyl]amino]-(αS)-3,4-dihydro-4-oxo-2-quinazolinepropanoic acid]: the IC50 at Human αvβ3 worked out at 42 nM; at GPIIb/IIIa it was 270 nM.

For `COc1cc(C)c(S(=O)(=O)N[C@@H](Cc2nc3ccc(/C=C/CNC(=O)NCc4ccccc4)cc3c(=O)[nH]2)C(=O)O)c(C)c1C` [Compound 56, (αS)-3,4-dihydro-α-[[(4-methoxy-2,3,6-trimethylphenyl)sulfonyl]amino]-4-oxo-6-[(1E)-3-[[[(phenylmethyl)amino]carbonyl]amino]-1-propenyl]-2-quinazolinepropanoic acid], the IC50 at Human αvβ3 was 32 nM; at GPIIb/IIIa, 3900 nM.
